Assay results: publication PMC9958137, “The cofactor-dependent folding mechanism of Drosophila cryptochrome revealed by single-molecule pulling experiments” (Nature Communications, 2023)

target: T1, dCRY (Drosophila cryptochrome) (Drosophila melanogaster, UniProt O77059); assay: single-molecule optical tweezers, FAD titration of fully folded fraction; format: binding; details: read-out: Kd,app
T1 construct: gene cry; full length, 542 residues; His6, N-terminal Avi tag (biotinylated) and C-terminal ybbR tag (DNA handle) kept; 558 residues with engineered linkers; FAD dialysed out for apo; only genus Drosophila given
T1 sequence (O77059 whole entry): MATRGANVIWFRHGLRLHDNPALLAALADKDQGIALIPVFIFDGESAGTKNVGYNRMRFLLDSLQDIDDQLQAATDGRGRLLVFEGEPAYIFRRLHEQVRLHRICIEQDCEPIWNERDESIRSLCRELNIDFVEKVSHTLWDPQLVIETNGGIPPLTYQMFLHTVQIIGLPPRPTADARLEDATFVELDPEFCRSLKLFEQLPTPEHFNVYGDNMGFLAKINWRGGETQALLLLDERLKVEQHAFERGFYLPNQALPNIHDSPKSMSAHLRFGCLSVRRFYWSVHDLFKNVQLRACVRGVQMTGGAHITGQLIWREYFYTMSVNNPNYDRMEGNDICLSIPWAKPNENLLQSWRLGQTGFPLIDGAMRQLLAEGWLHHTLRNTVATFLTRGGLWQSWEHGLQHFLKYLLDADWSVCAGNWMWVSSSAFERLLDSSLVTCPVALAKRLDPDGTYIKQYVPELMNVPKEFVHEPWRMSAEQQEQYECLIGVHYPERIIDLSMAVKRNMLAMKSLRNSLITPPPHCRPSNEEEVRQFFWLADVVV

**Q.** Which Kd does the source give for `Cc1cc2nc3c(=O)[nH]c(=O)nc-3n(C[C@H](O)[C@H](O)[C@H](O)COP(=O)(O)OP(=O)(O)OC[C@H]3O[C@@H](n4cnc5c(N)ncnc54)[C@H](O)[C@@H]3O)c2cc1C` [FAD] here?
**A.** 0.11 ± 0.01 nM

target: T1, dCRY (Drosophila cryptochrome); assay: single-molecule optical tweezers, ligand-promoted refolding; format: binding; details: 0.1 mM ligand, FAD dialysed out; refolding 20 s at 1 pN; pH 8.0; no Mg2+

**Q.** Which “% fully folded events at 0.1 mM” value does the source give for `Nc1ncnc2c1ncn2[C@@H]1O[C@H](COP(=O)(O)OP(=O)(O)O)[C@@H](O)[C@H]1O` [ADP] here?
**A.** 9%

**Q.** `Cc1cc2nc3c(=O)[nH]c(=O)nc-3n(C[C@H](O)[C@H](O)[C@H](O)CO)c2cc1C` [riboflavin] was tested. Which “% fully folded events at 0.1 mM” value did it give?
**A.** 39%

**Q.** With `Nc1ncnc2c1ncn2[C@@H]1O[C@H](COP(=O)(O)O)[C@@H](O)[C@H]1O` [AMP] as the compound, how does the “% fully folded events at 0.1 mM” value read?
**A.** 24%

**Q.** Which “% fully folded events at 0.1 mM” value does the source give for `Cc1cc2nc3c(=O)[nH]c(=O)nc-3n(C[C@H](O)[C@H](O)[C@H](O)COP(=O)(O)O)c2cc1C` [FMN] here?
**A.** 84%

**Q.** How did the “% fully folded events at 0.1 mM” value turn out when `Nc1ncnc2c1ncn2[C@@H]1O[C@H](CO)[C@@H](O)[C@H]1O` [adenosine] was run?
**A.** 20%
